Test results reported in patent US9417245B2, “Porphyrinic compounds for use in flow cytometry” (North Carolina State University, priority 2005, dated 2016).
“And” between values parts separate entries of the source, which are not always exact repeats. Equal entries are not always repeated. Where two headings read alike, the source gives them in different places.

Assays:
[1] = Absorption spectroscopy of chlorins (B and Qy bands, log ε, B/Qy ratio); format: physicochemical; conditions: for ΔvQy: Example 2 Table 2, redshift relative to the parent chlorin (ZnC or Zn-M^10)
Source text: (§1) The spectral properties of interest in the chlorins include the position of the long-wavelength Qy transition, the intensity of the Qy transition, and the fluorescence quantum yield of the chlorin. The intensity of the Qy transition can be assessed by the measured molar absorption coefficient; however, comparisons of such values are somewhat unreliable given the experimental variability encountered upon handling small quantities of materials. A better comparison is achieved by examination of the ratio of the intensities of the B and Qy bands for a given compound (B/Qy ratio), which is determined simply by absorption spectroscopy without requiring determination of the molar absorption coefficient. For a wide variety of applications, bathochromic and hyperchromic shifts of the Qy band are desired (i.e., shifted to longer wavelength and intensified), thereby affording strong absorption in the deep-red region.
^1H NMR (400 MHz) and ^13C NMR (75 MHz) spectra were collected at room temperature in CDCl3. Absorption spectra were obtained in toluene at room temperature. Chlorins were analyzed by laser desorption mass spectrometry (LD-MS) in the absence of a matrix. Fast atom bombardment mass spectrometry (FAB-MS) data are reported for the molecule ion or protonated molecule ion. Melting points are uncorrected. All commercially available materials were used as received. All palladium-coupling reactions were carried out using standard Schlenk-line techniques.
as §1, with “increased” for “intensified), thereby affording strong absorption”, “intensity).” for “the deep-red region.”
^1H NMR (400 MHz) and ^13C NMR (75 MHz) spectra were collected at room temperature in CDCl3 unless noted otherwise. Absorption spectra were obtained in toluene at room temperature. Chlorins were analyzed by laser desorption mass spectrometry (LD-MS) in the absence of a matrix. Metalation of free base chlorins was monitored by fluorescence spectroscopy. Melting points are uncorrected. All commercially available materials were used as received.

[2] = literature, cited from earlier work; for Qy band position: FIG. 3, natural pigments, in diethyl ether
[3] = Fluorescence spectroscopy (emission bands, fluorescence quantum yield); format: physicochemical; conditions: in toluene at room temperature
Protocol: The fluorescence spectra and fluorescence quantum yields reported herein were collected in toluene at room temperature. Measurements of fluorescence quantum yield (Φf) were carried out using chlorin Zn-11 (Φf=0.065) as a standard.^16

Compound	ΔvQy ([1]; toluene) [cm⁻¹]	Qy band position ([1]; in toluene at room temperature)	Qy band position [2]	other results
C=Cc1c(C)c2cc3nc(c4c5[n-]c(cc6nc(cc1[n-]2)C(C=O)=C6CC)c(C)c5C(=O)[C@@H]4C(=O)OC)[C@@H](CCC(=O)OC/C=C(\C)CCC[C@H](C)CCC[C@H](C)CCCC(C)C)[C@@H]3C.[Mg+2] [chlorophyll b]			644 nm and 642 nm	
CC(=O)c1cc2[n]3c1C=C1CC(C)(C)C(=N1)C=c1cc(C#C[Si](C(C)C)(C(C)C)C(C)C)c([n]1[Zn]3)=CC1=NC(=C2c2c(C)cc(C)cc2C)C=C1 [ZnC-E^3M^10A^13, Zn(II)-13-Acetyl-3-[2-(triisopropylsilyl)ethynyl]-17,18-dihydro-10-mesityl-18,18-dimethylporphyrin]	1160	652 nm		
Cc1ccc(-c2c3nc(c(-c4c(C)cc(C)cc4C)c4cc5c([nH]4)c(c4nc(cc6ccc2[nH]6)C(C)(C)C4)CC5=O)C=C3)cc1 [Compound 2, 18,18-Dimethyl-10-mesityl-13^1-oxo-5-p-tolylphorbine]		660 nm		
C=Cc1c(C)c2cc3nc(c4c5[n-]c(cc6nc(cc1[n-]2)C(C)=C6CC)c(C)c5C(=O)[C@@H]4C(=O)OC)[C@@H](CCC(=O)OC/C=C(\C)CCC[C@H](C)CCC[C@H](C)CCCC(C)C)[C@@H]3C.[Mg+2] [chlorophyll a]			662 nm	B band position ([2]; chlorophyll a): 430 nm; B/Qy band intensity ratio ([2]; chlorophyll a): 1.3
CC(=O)c1cc2[n]3c1=CC1=NC(=Cc4ccc([n]4[Zn]3)C(c3ccc(C)cc3)=C3C=CC(=N3)C=2c2c(C)cc(C)cc2C)C(C)(C)C1 [Zn-1, Zn(II)-13-Acetyl-17,18-dihydro-10-mesityl-18,18-dimethyl-5-p-tolylporphyrin]		632 nm and 635 nm		B band position ([1]; in toluene at room temperature): 424 nm; B/Qy band intensity ratio ([1]; in toluene at room temperature): 2.9; log ε (Qy band) ([1]; molar absorption coefficient comparison, toluene): 4.75; strong Qy(0,0) / dominant fluorescence band [3]: around 641 nm
Cc1cc(C)c(C2=c3cc(C#C[Si](C(C)C)(C(C)C)C(C)C)c4[n]3[Zn][n]3c(cc(C#C[Si](C(C)C)(C(C)C)C(C)C)c3C=C3C=CC2=N3)C=C2N=C(C=4)CC2(C)C)c(C)c1 [ZnC-E^3M^10E^13, Zn(II)-3,13-Bis[2-(triisopropylsilyl)ethynyl]-17,18-dihydro-10-mesityl-18,18-dimethylporphyrin]	1020	646 nm		
pheophytin a			667 nm	

The next lines start with results.

ΔvQy ([1]; toluene) [cm⁻¹]	Qy band position ([1]; in toluene at room temperature)	Compound	Qy band position [2]	other results
680	632 nm	CC(=O)c1cc2[n]3c1C=C1CC(C)(C)C(=N1)C=c1ccc([n]1[Zn]3)=CC1=NC(=C2c2c(C)cc(C)cc2C)C=C1 [ZnC-M^10A^13, Zn(II)-13-Acetyl-17,18-dihydro-10-mesityl-18,18-dimethylporphyrin]		B/Qy band intensity ratio ([1]; in toluene at room temperature): 2.2
400	621 nm	C=Cc1cc2[n]3c1C=C1C=CC(=N1)C(c1c(C)cc(C)cc1C)=c1ccc([n]1[Zn]3)=CC1=NC(=C2)C(C)(C)C1 [ZnC-V^3M^10]		
530	626 nm	Cc1cc(C)c(C2=c3cc(C#C[Si](C(C)C)(C(C)C)C(C)C)c4[n]3[Zn][n]3c(ccc3C=C3N=C(C=4)CC3(C)C)C=C3C=CC2=N3)c(C)c1 [ZnC-M^10E^13, Zn(II)-13-[2-(Triisopropylsilyl)ethynyl]-17,18-dihydro-10-mesityl-18,18-dimethylporphyrin]		
